Legend:
Marestail [1] = test: Additional field trial, Clarity + Roundup PowerMax with adjuvant formulations, weed control; type: in vivo, Conyza canadensis; details: Clarity tank mixed with Roundup PowerMax, Example 2
Method: Additional field trials were performed that compared Sharpen (active ingredient: saflufenacil ([2-chloro-4-fluoro-5-(3-methyl-2,6-dioxo-4-(trifluoromethyl)-3, 6-dihydro-1(2H)-pyrimidinyl)benzoyl]-N-isopropyl-N-methylsulfamide)) or Clarity (active ingredient: diglycolamine salt of 3,6-dichloro-o-anisic acid) to formulations described herein.

Marestail [2] = test: Roundup PowerMax Plus Sharpen Trials, weed control evaluation; type: in vivo
Method: (§1) Each treatment was comprised of a mixture of Roundup PowerMax (glyphosate potassium) at 11 oz/ac plus Sharpen (saflufenacil) diluted and applied at 10 gallons/acre spray volume. A-110 is a polymeric nonionic and alkyl and aryl ethoxylate blend emulsifier commercially available from Adjuvants Unlimited (Tulsa, Okla). Emulsifier “D” is a blend of polyoxyalkenes and ethoxylated castor oil and other components.
(§2) Trials were conducted in Indiana, North Dakota, and Ohio (1 location per state). Weed species varied by location but included glyphosate resistant marestail or kochia. Weed control (herbicide efficacy) evaluations were taken at approximately 7, 14, and 28 days after herbicides were applied.

kochia [3] = test: as above; type: in vivo; details: North Dakota, 10% methyl salicylate substituted for methylated soybean oil
Method: as §1, §2

Marestail [4] = test: Instigate Trials, weed control evaluation; type: in vivo
Method: (§3) Each treatment was comprised of Instigate applied at 3 oz product/ac, diluted and applied at 10 gallons/acre spray volume.
(§4) Trials were conducted in Indiana, North Dakota, and Ohio (1 location per state).
(§5) Weed species varied by location but included glyphosate resistant marestail or kochia. Weed control (herbicide efficacy) evaluations were taken at approximately 7, 14, and 28 days after herbicides were applied.

kochia [5] = test: Instigate Trials, weed control evaluation; type: in vivo; details: North Dakota, 27 days after treatment, with methylated soybean oil and AU-110 and F emulsifiers
Method: as §3, §4, §5

Marestail [6] = test: Paraquat Concentrate Trials, weed control evaluation; type: in vivo; details: Indiana; Paraquat Concentrate Trials (text prints Instigate)
Method: (§6) Each treatment was comprised of Paraquat Concentrate applied at 0.45 pt product/ac, diluted and applied at 10 gallons/acre spray volume.
as §4, §5

common lambsquarters = test: as above; type: in vivo; details: North Dakota; Paraquat Concentrate 0.45 pt product/ac
Method: as §6, §4, §5

wheat = test: as above; type: in vivo; details: North Dakota; Paraquat Concentrate 0.45 pt product/ac
Method: as §6, §4, §5

With `COC(=O)c1ccccc1O` [methyl salicylate] the “Change of control of glyphosate-resistant marestail (in words)” value (Marestail [1]) was “did not increase control”, the “marestail control (in words)” value (Marestail [2]; Indiana, Roundup PowerMax 11 oz/ac plus Sharpen) was “no increase in control” and the “marestail control (in words)” value (Marestail [2]; Ohio, Roundup PowerMax 11 oz/ac plus Sharpen) was “numerically greater”. The “marestail control (in words)” value (Marestail [2]; Ohio, Roundup PowerMax plus Sharpen, 14 days after treatment, with D emulsifier and F emulsifiers) was “greater”, the “kochia control (in words)” value (kochia [3]; with the AU-110 or F emulsifier) was “not” and the “kochia control (in words)” value (kochia [3]; with the D emulsifier) was “increased control”. The “marestail control (in words)” value (Marestail [4]; Indiana, Instigate 3 oz product/ac) was “did not increase marestail control”, the “marestail control (in words)” value (Marestail [4]; Ohio, Instigate, with methylated soybean oil and F emulsifier) was “increased marestail control” and the “kochia control (in words)” value (kochia [5]) was “numerically greater”. The “marestail control (in words)” value (Marestail [6]) was “did not increase marestail control”, the “common lambsquarters control (in words)” value (common lambsquarters) was “did not increase control” and the “wheat control (in words)” value (wheat) was “did not increase control”.

Source: patent US20170290328A1, “COMPOSITIONS AND METHODS FOR APPLYING AGRICULTURAL PRODUCTS” (priority 2014, published 2017)
